Test results as given in US20080221161A1, “HETEROCYCLIC MODULATORS OF TGR5 FOR TREATMENT OF DISEASE” (KALYPSYS, INC., priority 2007, published 2008).

Target: T1, human TGR5 (Homo sapiens, UniProt Q8TDU6)
T1 construct: expressed in transfected cells; host or cells: HEK-293 cells, stably transfected (pcDNA 3.1, Fugene6, geneticin selection)
T1 sequence (Q8TDU6 1-330): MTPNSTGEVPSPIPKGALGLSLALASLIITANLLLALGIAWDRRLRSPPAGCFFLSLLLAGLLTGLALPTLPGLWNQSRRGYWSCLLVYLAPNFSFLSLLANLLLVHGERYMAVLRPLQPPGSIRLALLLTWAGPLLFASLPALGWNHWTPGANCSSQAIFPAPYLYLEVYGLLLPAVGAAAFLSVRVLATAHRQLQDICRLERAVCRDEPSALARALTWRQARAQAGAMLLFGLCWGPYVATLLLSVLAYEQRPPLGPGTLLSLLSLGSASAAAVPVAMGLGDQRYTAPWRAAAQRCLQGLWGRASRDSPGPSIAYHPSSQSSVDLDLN
Assay: cAMP production assay in HEK293-TGR5 cells
Format: cell-based
Conditions: HEK293 cells stably expressing human TGR5; 30 minutes stimulation; LANCE cAMP TR-FRET; read-out: cAMP Production in 293-TGR5 Cells EC50
Experimental: HEK293 cells stably expressing TGR5 (HEK293-TGR5) were established by stably transfecting HEK-293 cells with an expression vector (pcDNA 3.1, Invetrogen) inserted with human TGR5 cDNA using Fugene6 (Roche, Indianapolis, Ind.) according to conventional methods. Cells were grown in DMEM (invitrogen, Carlsbad, Calif.) supplemented with 10% FBS, 1% penicillin/streptomycin under geneticin selection. The presence of TGR5 transcripts in these cells was confirmed using branched DNA (bDNA, Genospectra, Inc., Fremont Calif.) following the manufacturer's protocol and using specific probes for human TGR5. cAMP production assay was performed in high throughput 1536 well format using LANCE cAMP detection kit (Perkin Elmer Inc., Boston, Mass.) according to the manufacturer's protocol. Briefly, HEK293-TGR5 cells were harvested using non-enzymatic cell dissociation buffer (Invitrogen, Carlsbad, Calif.) and suspended in DMEM supplemented with 0.1% FBS at a density of 800,000 cells/ml. Alexa antibody was added to the cell suspension, and 4 ul of the mixture was dispensed in white opaque tissue culture treated Greiner 1536 well plates (USA Scientific, Inc., Ocala, Fla.). After an overnight incubation at 37C in an atmosphere of 10% CO2 and 95% humidity, 1 ul of 5 mM IBMX (Sigma, St. Louis, Mo.) solution in DMEM was dispensed for a final concentration of 1 mM. Cells were then stimulated with test compounds for 30 minutes, after which time 5 ul of detection reagent was added and incubated for 1-7 hrs at room temperature. TR-FRET signal was detected using the Viewlux (Perkin Elmer Inc., Boston Mass.). EC50 values were determined using Graph Pad Prizm analysis (GraphPad Software, Inc).

Compound | EC50 [µM]
COc1ccc2cc(CN(C)CCc3ccc(Cl)cc3)c(-c3ccsc3)nc2c1 [Example 35, 2-(4-Chlorophenyl)-N-((7-methoxy-2-(thiophen-3-yl)quinolin-3-yl)methyl)-N-methylethanamine] | > 10
COc1ccc2cc(CNCc3ccc(C(F)(F)F)cc3)c(-c3ncco3)nc2c1 [Example 37, 1-(7-Methoxy-2-(oxazol-2-yl)quinolin-3-yl)-N-(4-(trifluoromethyl)benzyl)methanamine] | > 10
COc1ccc2cc(CNCCc3ccc(Cl)cc3)c(-c3ncco3)nc2c1 [Example 38, 2-(4-Chlorophenyl)-N-((7-methoxy-2-(oxazol-2-yl)quinolin-3-yl)methyl)ethanamine] | < 10
CSc1ccc2cc(CNCCc3ccc(Br)cc3)c(-c3ccsc3)nc2c1 [Example 39, 2-(4-Bromophenyl)-N-((7-(methylthio)-2-(thiophen-3-yl)quinolin-3-yl)methyl)ethanamine] | < 10
CSc1ccc2cc(CNCc3ccc(C(F)(F)F)cc3)c(-c3ccsc3)nc2c1 [Example 40, 1-(7-(Methylthio)-2-(thiophen-3-yl)quinolin-3-yl)-N-(4-(trifluoromethyl)benzyl)methanamine] | > 10
FC(F)(F)c1ccc(CNCc2cc3ccc(Cl)cc3nc2-c2ccsc2)cc1 [Example 41, 1-(7-Chloro-2-(thiophen-3-yl)quinolin-3-yl)-N-(4-(trifluoromethyl)benzyl)methanamine] | > 10
Cc1ccc2cc(CNCc3ccc(C(F)(F)F)cc3)c(-c3ccsc3)nc2c1 [Example 44, 1-(7-Methyl-2-(thiophen-3-yl)quinolin-3-yl)-N-(4-(trifluoromethyl)benzyl)methanamine] | < 10
CCOc1ccc2cc(CNCCc3ccc(Br)cc3)c(-c3cccnc3)nc2c1 [Example 45, 2-(4-Bromophenyl)-N-((7-ethoxy-2-(pyridin-3-yl)quinolin-3-yl)methyl)ethanamine] | > 10
CCOc1ccc2cc(CNCc3ccc(C(F)(F)F)cc3)c(-c3cccnc3)nc2c1 [Example 46, 1-(7-Ethoxy-2-(pyridin-3-yl)quinolin-3-yl)-N-(4-(trifluoromethyl)benzyl)methanamine] | > 10
COc1ccc2cc(CNCc3ccc(C(F)(F)F)cc3)c(-c3ccccc3)nc2c1 [Example 48, 1-(7-Methoxy-2-phenylquinolin-3-yl)-N-(4-(trifluoromethyl)benzyl)methanamine] | < 10
CCOc1ccc2cc(CNCCc3ccc(Cl)cc3)c(-c3ccsc3)nc2c1 [Example 50, 2-(4-Chlorophenyl)-N-((7-ethoxy-2-(thiophen-3-yl)quinolin-3-yl)methyl)ethanamine] | < 10
CCOc1ccc2cc(CNCc3ccc(C(F)(F)F)cc3)c(-c3ccsc3)nc2c1 [Example 51, 1-(7-Ethoxy-2-(thiophen-3-yl)quinolin-3-yl)-N-(4-(trifluoromethyl)benzyl)methanamine] | < 10
COc1ccc2cc(CNCc3ccc(Br)cc3)c(-c3ccncc3)nc2c1 [Example 52, N-(4-Bromobenzyl)-1-(7-methoxy-2-(pyridin-4-yl)quinolin-3-yl)methanamine] | < 10
COc1cc(OC)c2cc(CNCc3ccc(C(F)(F)F)cc3)c(-c3ccsc3)nc2c1 [Example 53, 1-(5,7-Dimethoxy-2-(thiophen-3-yl)quinolin-3-yl)-N-(4-(trifluoromethyl)benzyl)methanamine] | < 10
COc1cc(OC)c2cc(CNCCc3ccc(Br)cc3)c(-c3ccsc3)nc2c1 [Example 54, 2-(4-Bromophenyl)-N-((5,7-dimethoxy-2-(thiophen-3-yl)quinolin-3-yl)methyl)ethanamine] | < 10
COc1ccc2cc(CNCc3ccc(C(F)(F)F)cc3)c(-c3cscc3C)nc2c1 [Example 55, 1-(7-Methoxy-2-(4-methylthiophen-3-yl)quinolin-3-yl)-N-(4-(trifluoromethyl)benzyl)methanamine] | > 10
COc1ccc2cc(CNCCc3ccc(Br)cc3)c(-c3cscc3C)nc2c1 [Example 56, 2-(4-Bromophenyl)-N-((7-methoxy-2-(4-methylthiophen-3-yl)quinolin-3-yl)methyl)ethanamine] | > 10
COc1ccc2cc(CNCCc3ccc(Cl)c(Cl)c3)c(-c3ccsc3)nc2c1 [Example 61, 2-(3,4-Dichlorophenyl)-N-((7-methoxy-2-(thiophen-3-yl)quinolin-3-yl)methyl)ethanamine] | < 10

Compound | EC50 [µM]
COc1ccc2cc(CNCc3ccc4c(c3)OCO4)c(-c3ccsc3)nc2c1 [Example 64, 1-(Benzo[d][1,3]dioxol-5-yl)-N-((7-methoxy-2-(thiophen-3-yl)quinolin-3-yl)methyl)methanamine] | > 10
COc1ccc2cc(CNCCc3ccc(OC)c(Br)c3)c(-c3ccsc3)nc2c1 [Example 65, 2-(3-Bromo-4-methoxyphenyl)-N-((7-methoxy-2-(thiophen-3-yl)quinolin-3-yl)methyl)ethanamine] | < 10
COc1ccc2cc(CNCc3ccc(Cl)c(Cl)c3)c(-c3ccsc3)nc2c1 [Example 66, N-(3,4-Dichlorobenzyl)-1-(7-methoxy-2-(thiophen-3-yl)quinolin-3-yl)methanamine] | < 10
COc1ccc2cc(CNCc3ccc([N+](=O)[O-])cc3)c(-c3ccsc3)nc2c1 [Example 67, 1-(7-Methoxy-2-(thiophen-3-yl)quinolin-3-yl)-N-(4-nitrobenzyl)methanamine] | < 10
COc1ccc2cc(CNc3ccccc3)c(-c3ccsc3)nc2c1 [Example 68, N-((7-Methoxy-2-(thiophen-3-yl)quinolin-3-yl)methyl)aniline] | < 10
COc1ccc2cc(CNc3ccc(Cl)cc3)c(-c3ccsc3)nc2c1 [Example 69, 4-Chloro-N-((7-methoxy-2-(thiophen-3-yl)quinolin-3-yl)methyl)aniline] | < 10
COc1ccc2cc(CNCc3ccncc3)c(-c3ccsc3)nc2c1 [Example 70, 1-(7-Methoxy-2-(thiophen-3-yl)quinolin-3-yl)-N-(pyridin-4-ylmethyl)methanamine] | > 10
COc1ccc2cc(CNCc3cnc(C)cn3)c(-c3ccsc3)nc2c1 [Example 71, 1-(7-Methoxy-2-(thiophen-3-yl)quinolin-3-yl)-N-((5-methylpyrazin-2-yl)methyl)methanamine] | < 10
COc1ccc2cc(CNCc3cccnc3)c(-c3ccsc3)nc2c1 [Example 72, 1-(7-Methoxy-2-(thiophen-3-yl)quinolin-3-yl)-N-(pyridin-3-ylmethyl)methanamine] | > 10
COc1ccc2cc(CNCCc3ccc(Br)cc3)c(-c3csc4ccccc34)nc2c1 [Example 73, N-((2-(Benzo[b]thiophen-3-yl)-7-methoxyquinolin-3-yl)methyl)-2-(4-bromophenyl)ethanamine] | < 10
COc1cc(OC)c(CNCc2cc3ccc(OC)cc3nc2-c2ccncc2)c(OC)c1 [Example 74, 1-(7-Methoxy-2-(pyridin-4-yl)quinolin-3-yl)-N-(2,4,6-trimethoxybenzyl)methanamine] | > 10
COc1ccc2cc(CNCc3ccc(C(C)(C)C)cc3)c(-c3ccncc3)nc2c1 [Example 75, N-(4-tert-Butylbenzyl)-1-(7-methoxy-2-(pyridin-4-yl)quinolin-3-yl)methanamine] | < 10
COc1ccc2cc(CNCCc3cccnc3)c(-c3ccncc3)nc2c1 [Example 76, N-((7-Methoxy-2-(pyridin-4-yl)quinolin-3-yl)methyl)-2-(pyridin-3-yl)ethanamine] | < 10
COc1ccc2cc(CNCc3ccc(C(F)(F)F)cc3)c(-c3ccco3)nc2c1 [Example 77, 1-(2-(Furan-2-yl)-7-methoxyquinolin-3-yl)-N-(4-(trifluoromethyl)benzyl)methanamine] | > 10
COc1ccc2cc(CNCc3ccco3)c(-c3ccsc3)nc2c1 [Example 78, 1-(Furan-2-yl)-N-((7-methoxy-2-(thiophen-3-yl)quinolin-3-yl)methyl)methanamine] | < 10
Oc1ccc2cc(CNCc3ccc(C(F)(F)F)cc3)c(-c3ccsc3)nc2c1 [Example 79, 2-(Thiophen-3-yl)-3-((4-(trifluoromethyl)benzylamino)methyl)quinolin-7-ol] | < 10
COc1ccc2cc(CNCCc3ccccn3)c(-c3ccncc3)nc2c1 [Example 80, N-((7-Methoxy-2-(pyridin-4-yl)quinolin-3-yl)methyl)-2-(pyridin-2-yl)ethanamine] | > 10
